Legend:
Assay in all cases: Number of living cells counted by flow cytometry (FACSort) after D1R agonist
Assay type in all cases: cell-based
[1] = tested on: TCR-activated normal human T-cells; conditions: 10^−5 M, 72 hr
Method: (§1) FIGS. 31A and B are graphs showing that A 77636 hydrochloride kills much more TCR-activated (FIG. 31B) than resting normal (FIG. 31A) human T-cells. […] The cells were then transferred to the incubator for 72 hr incubation. At the end of the 72 hr incubation, the number of living cells in each well was evaluated by flow cytometry (the cells were counted by FACsort for a fixed time length of 1 min, in which 100 microliter of each sample was tested).
Non-tissue culture treated 24-well plates (Falcon, Franklin Lakes, N.J.) were coated overnight at 4° C. with anti-CD3 and anti-CD28 monoclonal antibodies (mabs) (BD Pharmingen, San Jose, Calif.); ([…] in PBS). The wells were then washed with PBS, blocked for 1 hour at 37° C. (PBS/1% BSA), and washed again. The freshly purified normal human T-cells were resuspended in their respective fresh media and seeded in the anti-CD3/CD28 coated wells (1×10^6 per well), and the plates were incubated for 72 hours (37° C., humidified incubator, 5% CO2). Then, the cells and their media were collected from each well, transferred into 50 ml tubes, centrifuged (1200 rpm, 10 minutes) and both the TCR-activated cells and their culture media were collected and transferred into clean separate tubes.
(§2) Cell viability was tested afterwards.

[2] = tested on: Human Burkitt's B-lymphoma cells (Daudi); conditions: 10^−3M-10^−6M, 3 days
Method: Human Burkitt's B-lymphoma cells (Daudi) were seeded in 96 well plates (0.5 ml per well of 0.5 million cells/ml) and A 77636 hydrochloride was added and diluted 1:00 into the wells at starting concentrations of 10^−1M-10^−4M, so that the final concentration range tested was 10^−3M-10^−6M. […] Then, the number of living cells was evaluated by flow cytometry (the cells were counted by FACsort for a fixed time length of 1 min, in which 100 microliter of each sample was tested).
Human Burkitt's B-lymphoma cells (Daudi) were seeded in 96 well plates (0.5 ml per well of 0.5 million cells/ml) and A 68930 hydrochloride was added and diluted 1:00 into the wells at starting concentrations of 10^−1M-10^−4M, so that the final concentration range tested was 10^−3M-10^−6M. […] Then, the number of living cells was evaluated by flow cytometry (the cells were counted by FACsort for a fixed time length of 1 min, in which 100 microliter of each sample was tested).
[…] Then, the number of living cells was evaluated by flow cytometry (the cells were counted by FACsort for a fixed time length of 1 min, in which 100 microliter of each sample was tested).
as §2
The effect of dopamine itself (that can of course activate all its D1R-5 receptors) was also tested. All of these molecules were tested at a similar concentration (10^−4 M). […] The specificity and restriction of the effect to the D1R is also seen in Tables 7 and 8.

[3] = tested on: resting normal human T-cells
Method: (§3) Afterwards, the microtiter plates were placed in an incubator (37° C., humidified incubator, 5% CO2) for 3 days. Then, the number of living cells was evaluated by flow cytometry (the cells were counted by FACsort for a fixed time length of 1 min, in which 100 microliter of each sample was tested).
as §1, §2

[4] = tested on: Human Burkitt's B-cell lymphoma (Raji) cells; conditions: 10^−3M-10^−6M, 3 days
Method: as §3, §2

[5] = tested on: Human T-cell leukemia (Jurkat) cells

Cl.NC[C@@H]1O[C@H](C23CC4CC(CC(C4)C2)C3)Cc2c1ccc(O)c2O [A 77636 hydrochloride, (1R-cis)-1-(aminomethyl)-3,4-dihydro-3-tricyclo[3.3.1.13,7]dec-1-yl-[1H]-2-benzopyran-5,6-diol hydrochloride]
% of cells killed [1]: 46% | Killing of TCR-activated relative to resting normal human T-cells [1]: 3.8 fold | Cell death by number of living cells (FIGS. 16-18), in words [2]: induces marked cell death | Killing effect by number of living cells (FIGS. 25-27), in words ([3]; 10^−3M-10^−6M, 3 days): significantly milder killing effect | % of cells killed ([3]; 10^−5 M, 72 hr): 12% | Cell death by number of living cells (FIGS. 19-21), in words [4]: induces marked cell death | Cell death by number of living cells (FIGS. 10-12), in words ([5]; 10^−3M-10^−6M, 3 days): induces marked cell death | Killing, in words ([5]; 10^−4M, 1 min incubation then washed, living cells counted 3 days later): not sufficient to cause marked cell death | Killing, in words ([5]; 10^−4M, 15 minutes then washed, living cells counted 3 days later): significant | % of the cells killed (maximum) ([5]; 10^−4M, 1 hour of incubation then washed, living cells counted 3 days later): 94% | Killing, in words ([5]; 10^−4M, 72 hour incubation): no further effect | Speed of cell death by number of living cells (FIG. 30), in words ([5]; 10^−4M, exposure 1 min, 15 min, 1 hr or 72 hr): very rapid death
